Values quoted from earlier work as cited in patent US20130296280A1, “EUTECTIC MIXTURE COMPRISING CELECOXIB AND POLOXAMER” (priority 2012, published 2013).

Details: oral celecoxib; Drug Metab Dispos. 2000:28:308-314

Cc1ccc(-c2cc(C(F)(F)F)nn2-c2ccc(S(N)(=O)=O)cc2)cc1 [celecoxib, 4-[5-(4-methylphenyl)-3-(trifluoromethyl)-1H-pyrazol-1-yl]benzenesulfonamide]
bioavailability: 22-40%
